Experimental data as given in patent publication US5962487A, “Antipicornaviral compounds and methods for their use and preparation” (Agouron Pharmaceuticals, Inc., priority 1997, dated 1999).
pEC50, pKi: −log10 of the molar value.

Experiments:
[1] = target: T1, Rhinovirus 3C protease (RVP) serotype 16 (Human rhinovirus 16, UniProt Q82122); assay: Inhibition of Rhinovirus Protease, serotype 16 (FRET assay); assay type: biochemical; settings: enzyme start experiments, read-out: kobs/I
T1 construct: Recombinant Rhinovirus 3C proteases from serotypes 14, 16, 2 or 89 were prepared; made in house
T1 sequence (Q82122 1511-1693): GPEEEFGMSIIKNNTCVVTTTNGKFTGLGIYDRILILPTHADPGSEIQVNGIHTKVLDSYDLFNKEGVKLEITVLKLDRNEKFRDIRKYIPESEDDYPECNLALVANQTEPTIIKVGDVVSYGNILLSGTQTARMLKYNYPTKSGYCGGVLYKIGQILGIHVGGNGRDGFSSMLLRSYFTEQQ
Procedure: (§1) Stock solutions (50 mM, in DMSO) of various compounds were prepared; dilutions were in the same solvent. Recombinant Rhinovirus 3C proteases from serotypes 14, 16, 2 or 89 were prepared by the following standard chromatographic procedures: (1) ion exchange using Q Sepharose Fast Flow from Pharmacia; (2) affinity chromatography using Affi-Gel Blue from Biorad; and (3) sizing using Sephadex G-100 from Pharmacia. Assays contained 2% DMSO, 50 mM tris pH 7.6, 1 mM EDTA, a compound at the indicated concentrations, approximately 1 μM substrate, and 50-100 nM protease. For Ki determinations, the compound and the enzyme were preincubated for 10 minutes at 30° C. prior to addition of the substrate (substrate start). The kobs/I values were obtained from reactions initiated by addition of enzyme rather than substrate. RVP activity is measured in the fluorescence resonance energy transfer assay. The substrate was (N-terminal) DABCYL-(Gly-Arg-Ala-Val-Phe-Gln-Gly-Pro-Val-Gly)-EDANS. In the uncleaved peptide, the EDANS fluorescence was quenched by the proximal DABCYL moiety. When the peptide was cleaved, the quenching was relieved, and activity was measured as an increase in fluorescence signal.
(§2) In the above table, all data is for RVP serotype-14 unless otherwise noted in parentheses. All strains of human rhinovirus (HRV) were purchased from American Type Culture Collection (ATCC), except for serotype 14, which was produced from the infectious cDNA clone constructed and supplied to us by Dr. Roland Rueckert at the Institute for Molecular Virology, University of Wisconsin, Madison, Wis. The column designated INHIB represents the percent inhibition, with the concentration of the compound in μM indicated in parentheses, unless Ki was assigned as designated by (Ki), at 10 minute preincubation with 50 nM RVP prior to addition of substrate was used. The data in the column designated kobs/I was measured from progress curves in enzyme start experiments.

[2] = target: T2, Rhinovirus 3C protease (RVP) serotype-14 (Human rhinovirus 14, UniProt P03303); assay: Inhibition of Rhinovirus Protease, serotype 14 (FRET assay); assay type: biochemical; settings: for pKi / inhibition at 10 µM: RVP serotype-14; for pKi: 10 minute preincubation with 50 nM RVP prior to addition of substrate, read-out: INHIB (Ki); for kinact/KI: read-out: kobs/I; for inhibition at 10 µM: 10 μM compound, 10 minute preincubation with 50 nM RVP, read-out: INHIB (percent inhibition)
T2 construct: Recombinant Rhinovirus 3C proteases from serotypes 14, 16, 2 or 89 were prepared; made in house
T2 sequence (P03303 1538-1719): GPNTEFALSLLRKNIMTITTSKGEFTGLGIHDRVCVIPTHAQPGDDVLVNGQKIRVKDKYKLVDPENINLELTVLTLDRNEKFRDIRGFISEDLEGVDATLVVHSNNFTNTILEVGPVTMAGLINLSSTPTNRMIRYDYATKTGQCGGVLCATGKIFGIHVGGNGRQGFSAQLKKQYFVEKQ
Procedure: as §1, §2

[3] = target: T3, Rhinovirus 3C protease (RVP) serotype 2 (Human rhinovirus 2, UniProt P04936); assay: Inhibition of Rhinovirus Protease, serotype 2 (FRET assay); assay type: biochemical; settings: enzyme start experiments, read-out: kobs/I
T3 construct: Recombinant Rhinovirus 3C proteases from serotypes 14, 16, 2 or 89 were prepared; made in house
T3 sequence (P04936 1508-1690): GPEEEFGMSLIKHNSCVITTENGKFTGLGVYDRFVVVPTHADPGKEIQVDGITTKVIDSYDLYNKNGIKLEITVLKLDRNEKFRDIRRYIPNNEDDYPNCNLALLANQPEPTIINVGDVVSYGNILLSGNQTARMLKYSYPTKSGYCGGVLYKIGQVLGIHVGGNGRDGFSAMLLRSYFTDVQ
Procedure: as §1, §2

in vitro = assay type: cell-based; settings: human, hi-hela cells
Procedure: (§3) HI-HeLa cells were infected with HRV-14 (unless otherwise noted) at a multiplicity of infection (m.o.i.) of 0.13 (virus particles/cell) or mock-infected with medium only. Infected or mock-infected cells were resuspended at 8×10^5 cells per mL and incubated with appropriate concentrations of compounds of formulas I and II. Two days later, XTT/PMS was added to test plates, and the amount of formazan produced was quantified spectrophotometrically at 450/650 nm. The EC50 was calculated as the concentration of compound that increased the percentage of formazan production in compound-treated, virus-infected cells to 50% of that produced by compound-free mock-infected cells. The 50% cytotoxic dose (CC50) was calculated as the concentration of compound that decreased the percentage of formazan produced in compound-treated, mock-infected cells to 50% of that produced in compound-free, mock-infected cells. The therapeutic index (TI) was calculated by dividing the CC50 by the EC50.
(§4) All strains of human rhinovims (HRV) for use in this assay were purchased from American Type Culture Collection (ATCC), except for HRV serotype-14, which was produced from the infectious cDNA clone, constructed and supplied to us by Dr. Roland Rueckert at the Institute for Molecular Virology, University of Wisconsin, Madison, Wis. HRV stocks were propagated, and antiviral assays were performed in HI-HeLa (ATCC). Cells were grown in Minimal Essential Medium, available from Life Technologies, with 10% fetal bovine serum.

HRV-14 = assay: Antirhinoviral HI-HeLa Cell Culture Assay (cell protection, XTT), HRV-14; assay type: cell-based, human rhinovirus; settings: for TI: CC50/EC50, HRV serotype-14, 2880 min; for pEC50: Rhinovirus B, HRV14, 48 h, HRV serotype-14 infected HI-HeLa cells, XTT, two days
Procedure: In the Cell Protection Assay, the ability of compounds to protect cells against HRV infection was measured by the XTT dye reduction method. This method is described in O. S. Weislow, R. Kiser, D. L. Fine, J. Bader, R. H. Shoemaker, and M. R. Boyd, J. Natl. Cancer Inst. 1989, 81, 577-586, which document is entirely incorporated herein by reference.
as §3, §4
The compounds were tested against control compounds WIN 51711, WIN 52084, and WIN 54954, all obtained from Sterling-Winthrop Pharmaceuticals, and control compound Pirodavir, obtained from Janssen Pharmaceuticals. Antiviral data obtained for the test compounds are shown in Table 2 where all data are for HRV serotype-14 unless otherwise noted in parentheses.

Structure (SMILES) | kinact/KI [1] [M⁻¹ s⁻¹] | pKi [2] | kinact/KI [2] [M⁻¹ s⁻¹] | kinact/KI [3] [M⁻¹ s⁻¹] | CC50 at 48 h (in vitro) [µM] | TI (HRV-14) | pEC50 (HRV-14) | inhibition at 10 µM [2] [%]
CCOC(=O)/C=C/[C@H](CCC(N)=O)NC(=O)[C@H](Cc1ccccc1)N(C)C(=O)[C@H](CC(C)C)NC(=O)SCc1ccccc1 [Compound 15, Ethyl-3-(Benzylthiocarbonyl-L-Leu-L-N-Me-Phe-L-Gln)-E-Propenoate] | 5600 | 5.60 | 36400 | 3500 | 50.1 | 192 | 6.59 | –
CCOC(=O)/C=C/[C@H](CCC(N)=O)NC(=O)[C@@H]1CCc2ncc(NC(=O)OCc3ccccc3)c(=O)n21 [Compound 37, Ethyl-3-[(S)-3-(CBZ-Amino)4-Oxo-4,6,7,8-Tetrahydropyrrolo [1,2-α]Pyrimidine-6-L-Gln]-E-Propenoate] | 4000 | – | 12400 | 2500 | > 100 | > 11 | 5.05 | –
CCOC(=O)/C(C)=C/[C@H](CCC(N)=O)NC(=O)[C@H](Cc1ccccc1)N(C)C(=O)[C@H](CC(C)C)NC(=O)SCc1ccccc1 [Compound 16, Ethyl-2-Methyl-3-(Benzylthiocarbonyl-L-Leu-L-N-Me-Phe-L-Gln)-E-Propenoate] | 1000 | 4.92 | 8300 | 600 | 32 | 19 | 5.77 | –
CCOC(=O)/C=C/[C@H](CCC(N)=O)NC(=O)[C@H](Cc1ccccc1)N(C)C(=O)[C@@H](NC(=O)SCC)C(C)C [Compound 34, Ethyl-3-(Ethylthiocarbonyl-L-Val-L-N-Me-Phe-L-Gln)-E-Propenoate] | 2060 | – | 13400 | 940 | > 100 | > 312 | 6.49 | –
CCOC(=O)/C=C/[C@H](CCC(N)=O)NC(=O)[C@H](Cc1ccc(C)cc1)N(C)C(=O)[C@H](CCc1ccccc1)NC(=O)SCc1ccccc1 [Compound 13, Ethyl-3-[Benzylthiocarbonyl-L-hPhe-L-N-Me-(4-Me-Phe)-L-Gln] -E-Propenoate] | 11700 | – | 356000 | 3980 | 17.8 | 148 | 6.92 | –
CCOC(=O)/C=C/[C@H](CCC(N)=O)NC(=O)[C@@H]1CCCN1C(=O)[C@H](CC(C)C)NC(=O)SCC [Compound 24, Ethyl-3-(Ethythiocarbonyl-L-Leu-L-Pro-L-Gln)-E-Propenoate] | 9300 | 5.10 | 22000 | 7100 | > 100 | > 10 | 5.00 | –
CCOC(=O)/C=C/[C@H](CCC(N)=O)NC(=O)[C@H](Cc1ccc(OC)cc1)N(C)C(=O)[C@H](CC(C)C)NC(=O)OCc1ccccc1 [Compound 3, Ethyl-3-[CBZ-L-Leu-L-N-Me-(OMe)-Tyr-L-Gln]-E-Propenoate] | 929 | 4.92 | 16600 | 292 | 41.7 | 232 | 6.74 | –
CCOC(=O)/C=C/[C@H](CCC(N)=O)NC(=O)C1CNCCN1C(=O)[C@H](CC(C)C)NC(=O)OCc1ccccc1 (mixture of isomers) [Compound 27, Ethyl-3-(CBZ-L-Leu-DL-Pipz-L-Gln)-E-Propenoate] | 90 | – | 102 | 87 | > 320 | – | < 3.49 | –
CCOC(=O)/C=C/[C@H](CCC(N)=O)NC(=O)[C@H](Cc1ccccc1)N(C)C(=O)[C@@H](NC(=O)SC1CCCC1)C(C)C [Compound 35, Ethyl-3-(Cyclopentylthiocarbonyl-L-Val-L-N-Me-PHe-L-Gln-)-E-Propenoate] | 3480 | – | 22500 | 1600 | > 100 | > 526 | 6.72 | –
CCOC(=O)/C=C/[C@H](CCC(N)=O)NC(=O)[C@H](Cc1ccccc1)N(C)C(=O)[C@H](CSc1ccccc1)NC(=O)SC1CCCC1 [Compound 46] | – | – | 36800 | – | 18 | 33 | 6.27 | –
CC(C)C[C@H](NC(=O)SC1CCCC1)C(=O)N(C)[C@@H](Cc1ccccc1)C(=O)N[C@H](/C=C1\CCOC1=O)CCC(N)=O [Compound 6, 2-(Cyclopentylthiocarbonyl-L-Leu-L-N-Me-Phe-L-Gln)-E(α-Vinyl-γ-Butyrolactone)] | – | – | 9500 | – | 151 | 54 | 5.55 | –
CCOC(=O)/C=C/[C@H](CCC(N)=O)NC(=O)[C@@H]1[C@@H](C)CCN1C(=O)[C@H](CC(C)C)NC(=O)OCc1ccccc1 [Compound 21, Ethyl-3-[CBZ-L-Leu-L-(3S-Methyl)-Pro-L-Gln]-E-Propenoate] | – | 4.30 | 256 | – | > 320 | > 15 | 4.66 | –
CCOC(=O)/C=C/C(CCC(N)=O)NC(=O)[C@H](Cc1ccccc1)N1CC[C@@H](NC(=O)OCc2ccccc2)C1=O (some centres unmarked) [Compound 55] | – | – | – | – | > 100 | > 2 | 4.30 | 20
CCOC(=O)/C=C/[C@H](CCC(N)=O)NC(=O)[C@H](Cc1ccccc1)n1cc[nH]c1=O [Compound 32, Ethyl-3-(L-N-[(1,3-Dihydro-imidazol-2-one)-Phe]-L-Gln)-E-Propenoate] | – | – | 98 | – | > 320 | > 2 | 3.80 | –
CCOC(=O)/C=C/[C@H](CCC(N)=O)NC(=O)[C@H](Cc1ccccc1)n1ccn(NC(=O)OCc2ccccc2)c1=O [Compound 33, Ethyl-3-(CBZ-amino-L-N-[(1,3-Dihydro-imidazol-2-one)-Phe]-L-Gln)-E-Propenoate] | – | – | 361 | – | > 320 | – | < 3.49 | 86
CCOC(=O)C=CC(CCC(N)=O)NC(=O)C1CC(OC(C)(C)C)CN1C(=O)C(CC(C)C)NC(=O)OCc1ccccc1 (centres unmarked) [Compound 23] | – | 4.22 | 605 | – | 224 | 22 | 5.00 | –
COCCOC(=O)/C=C/[C@H](CCC(N)=O)NC(=O)[C@H](Cc1ccccc1)N(C)C(=O)[C@H](CC(C)C)NC(=O)SC1CCCC1 [Compound 58] | – | – | 24300 | – | 63 | 113 | 6.25 | –
CCSC(=O)N[C@@H](CC(C)C)C(=O)N(C)[C@@H](Cc1ccccc1)C(=O)N[C@H](/C=C/C(=O)N1CCOC1=O)CCC(N)=O [Compound 17, 1-[2'-Oxazolidon-3'-yl]-3-(Ethylthiocarbonyl-L-Leu-L-N-Me-Phe-L-Gln)-E-Propepone] | – | – | 750000 | – | 53 | 106 | 6.30 | –
